For 32 molecules, TGI and GI50 results are on record in PubChem BioAssay (NCI).

What all share (assay): NCI anticancer screen, dose series, 48 h
For assay [1], the system named is ACHN renal.
The subject of assay [2] is CAKI-1 renal.
Assay [3] relates to K-562 leukemia.
Assay [4] deals with SK-MEL-28 melanoma.
Assay [5] deals with U251 CNS.
Assay [6] concerns SK-MEL-5 melanoma.
The subject of assay [7] is UACC-257 melanoma.
In assay [8] the test system is MDA-MB-231 breast.
For assay [9], the system named is PC-3 prostate.
Assay [10] has as its system T-47D breast.

Molecules are shown by their SMILES. Several values for one entry are separate records, joined by “and”; a condition that tells them apart may be missing. Identical values can stand only once.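 Grown in 96-well plates, cells were treated for 48 hours with each compound at five concentrations. Insufficient inhibition: endpoint recorded as highest concentration tested. GI50 marks 50% less growth. TGI: concentration producing complete growth inhibition.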

`O=C1c2ccccc2C(=O)C12CCc1ccccc12`: the TGI in assay [1], in assay [2], in assay [3], in [4] and in assay [5] was greater than 100 µM in each case.
Turning to `COc1ccc(/C=C2\CCC(CCN(C)C)(C3=CCCC3)C2=O)cc1` (stereo not drawn), the TGI in assay [1] is 31.2 µM; in [2], 22.8 µM; in assay [3] it was 41.8 µM; in assay [4], 35.1 µM; in assay [6], 30.3 µM; in [5] it was 30.4 µM. Besides, in [7], the TGI is 30.8 µM.
As for `CC1(C)COC2C(N(Cc3ccccc3)Cc3ccccc3)C(=O)N21` (stereo not drawn), the TGI in [1] is greater than 100 µM; in [2] it was greater than 100 µM; in assay [3], 82.9 µM; in assay [4], greater than 100 µM; in assay [6] it was greater than 100 µM; in assay [5] it was 70.8 µM. The TGI in assay [7] is greater than 100 µM.
Regarding `CC12CC(=O)Nc3ccccc3N1C(c1ccccc1)=NO2` (stereo not drawn), the TGI in assay [1], in assay [2], in [3], in [8], in assay [9] and in assay [6] was greater than 100 µM throughout. The TGI in assay [5] and in assay [7] was greater than 100 µM throughout.
In the case of `COC(=O)C(=O)C(CC(=O)Nc1ccc(C)cc1)C(=O)OC` (stereo not drawn), the TGI in assay [1], in assay [2], in [3], in assay [4], in assay [6] and in assay [5] was greater than 100 µM in each case. This molecule also displayed a TGI in assay [7] greater than 100 µM.
As to `COc1cccc(-c2cc(=O)c3cc4c(cc3[nH]2)OCO4)c1`, the TGI in [1] was greater than 48.2 µM; in [3], greater than 100 µM; in assay [4], greater than 100 µM; in assay [6] it was 0.327 µM; in assay [7] it was greater than 100 µM.
For the molecule `O=C1CCC2(c3ccccc3)Nc3ccccc3N12` (stereo not drawn), the TGI in assay [1], in assay [2], in assay [3], in assay [4], in assay [6] and in [5] was greater than 100 µM throughout. In [7], this molecule yielded a TGI greater than 100 µM.
As to `COC(=O)C(C(=O)C(=O)Nc1ccc(C)cc1C)c1csc(-n2nc(-c3ccccc3)cc2-c2ccccc2)n1` (stereo not drawn), the TGI in assay [1], in [2], in assay [3], in assay [5] and in assay [7] was greater than 100 µM in each case.
As to `CCCC(=O)N[C@H]1CCc2cc(OC)c(OC)c(OC)c2-c2ccc(SC)c(=O)cc21`, the TGI in [1] is greater than 57.1 µM; in assay [2], 14.1 µM; in assay [3] it was greater than 100 µM; in [9] it was greater than 100 µM; in [4] it was greater than 100 µM; in assay [6] it was less than 0.0989 µM. Further, the TGI is greater than 100 µM in assay [10], 3.74 µM in assay [5] and greater than 74.1 µM in [7].
In the case of `C=C1C(=O)C23[C@H](O)C1CC[C@H]2[C@]12COC3(O)[C@@H](O)[C@@H]1C(C)(C)CC[C@@H]2O`, the TGI in assay [1] is 30.2 µM; in assay [2], 4.89 µM; in assay [3], 15.6 µM; in assay [4], 12.9 µM; in assay [6], 28.6 µM; in assay [5], 18.9 µM. Further, the TGI in assay [7] was 29.5 µM.
In the case of `C#CCN(N=O)C(=O)ON1C(=O)CCC1=O`, the TGI in assay [1], in assay [3], in assay [4], in assay [6], in assay [5] and in [7] was greater than 100 µM in each case.
Regarding `CC1CC2(S(=O)(=O)c3ccccc3)ON1CC2S(=O)(=O)c1ccccc1` (stereo not drawn), the TGI in [1], in assay [2], in [3], in [4], in assay [5] and in assay [7] was greater than 100 µM in each case.
On to `CN(C)C(=S)/N=c1\ssc(=S)n1C`, for which the TGI in [1], in assay [2], in assay [3], in assay [4], in assay [6] and in assay [5] was greater than 100 µM each time. In [7], this molecule gave a TGI greater than 100 µM.
As for `CC(=O)c1ccc(NC(=O)C(=O)C(C(=O)/C=C/c2ccccc2)C2OC(=O)c3ccccc32)cc1` (stereo not drawn), the TGI in assay [1], in assay [2], in assay [3], in assay [4], in assay [6] and in assay [5] was greater than 100 µM each time. This molecule also came in with a TGI in [7] greater than 100 µM.
As to `C[N+](C)(C)CC1CCCCC1=O` (stereo not drawn), the TGI is 34.4 µM in [1]; 64.3 µM in assay [3]; 31.6 µM in assay [4]; 80.3 µM in assay [6]; greater than 100 µM in assay [5]; 30.9 µM in assay [7].
Consider `COc1ccc(Nc2nc(Nc3cc(C)[nH]n3)c3cc(OC)c(OC)cc3n2)cc1`, for which the GI50 in [1] was 1.45 µM; in [2], 1.59 µM; in assay [8] it was 1.35 µM; in assay [4], 1.7 µM; in [6], 1.37 µM; in assay [10] it was 1.07 µM. Besides, the TGI in assay [1] is 2.78 µM; in assay [2], 2.95 µM; in [8], 2.9 µM; in assay [4], 3.26 µM; in [6] it was 3.05 µM; in [10], 3.48 µM.
Consider `N=c1c2ccccc2sc2nc3ccccc3n12`, for which the TGI in assay [1], in [2], in [3], in [4], in [6] and in [5] was greater than 100 µM each time. Moreover, in assay [7], the TGI is greater than 100 µM.
Turning to `O=c1cc(-c2ccccc2)[nH]c2cc(F)cc(F)c12`, the TGI in assay [1], in assay [2], in assay [3], in assay [4], in assay [6] and in assay [5] was greater than 100 µM each time. This molecule also displayed a TGI in [7] greater than 100 µM.
Regarding `COc1ccc(/C=C(\NC(=O)c2ccccc2)c2nc3ccccc3[nH]2)cc1OC`, the TGI in [1], in [2], in assay [3], in assay [4], in assay [6] and in [5] was greater than 100 µM each time. Moreover, the TGI in assay [7] is greater than 100 µM.
As for `CC(=O)OC(C(=O)[O][Sn]([CH3])([CH3])[CH3])c1ccccc1` (stereo not drawn), the GI50 in assay [1], in [2], in assay [3], in assay [4], in assay [6] and in [5] was greater than 100 µM in each case. Moreover, the GI50 in assay [7] was greater than 100 µM. Besides, the TGI in [1], in [2], in assay [3], in assay [4], in [6] and in assay [5] was greater than 100 µM each time. Moreover, the TGI in assay [7] was greater than 100 µM.
For `CC1(C)OC(=S)N(c2ccccc2)C12C=Cc1cc3ccccc3nc1S2` (stereo not drawn), the TGI in assay [1], in [3], in assay [4], in assay [6], in assay [5] and in [7] was greater than 100 µM in each case.
On to `COC/N=C(\NC#N)NCOC`, for which the TGI in assay [1], in assay [2], in assay [3], in assay [4], in [6] and in [5] was greater than 100 µM each time. The molecule also showed a TGI in assay [7] greater than 100 µM.
Turning to `Clc1ccccc1CN1COc2c(ccc3cccnc23)C1`, the TGI in assay [1] worked out at 13.2 µM; in assay [2] it was 12.8 µM; in assay [3], 4.51 µM; in assay [4], 14.9 µM; in [6], 8.93 µM; in assay [5], 19.1 µM. In addition, the TGI in [7] was determined as 8.2 µM.
With `CCOc1cccc2c1N[S@@](=O)S2`, the TGI in assay [1], in assay [2], in assay [3], in assay [4], in assay [5] and in assay [7] was greater than 100 µM each time.
`O=c1c2c(-c3ccccc3)c3ccccc3nc2cnn1-c1ccccc1`: the TGI in assay [1], in assay [2], in assay [3], in assay [4], in assay [6] and in assay [5] was greater than 100 µM throughout. This molecule came in with a TGI in [7] greater than 100 µM.
For the molecule `COc1cc(C(=O)N[C@H]2CCc3cc(OC)c(OC)c(OC)c3-c3ccc(SC)c(=O)cc32)cc(OC)c1OC`, the GI50 in assay [1] was 0.0804 µM. Besides, the TGI in [1] is 25 µM and > 100 µM; in assay [3] it was 25 µM and > 100 µM; in assay [4] it was greater than 100 µM; in assay [6] it was 0.324 µM and 0.0331 µM; in assay [5] it was 0.0812 µM; in assay [7] it was 19.1 µM and > 100 µM.
In the case of `CCSc1ccc([C@@H]2[C@@H](O)C(=O)N2c2cc(OC)c(OC)c(OC)c2)cc1`, the GI50 in [1] was 0.0141 µM; in [3], less than 0.01 µM; in [8], 0.0395 µM; in assay [9] it was 0.0146 µM; in assay [4], 11.7 µM; in assay [6], less than 0.0118 µM. Also, the figures for the GI50 in assay [10], in assay [5] and in assay [7] were 14.2 µM, less than 0.0144 µM and 0.0877 µM, respectively. Further, the TGI in [1] was 43.7 µM; in assay [3], greater than 69.9 µM; in assay [8], 29.4 µM; in [9], 79.7 µM; in [4], 33 µM; in [6] it was 0.433 µM. Moreover, the figures for the TGI in assay [10], in assay [5] and in assay [7] were 45.8 µM, 16 µM and 35 µM, respectively.
Regarding `CCC(=O)N/S(=N/S(=O)(=O)c1ccccc1)C(Cl)(Cl)Cl` (stereo not drawn), the TGI in assay [1], in assay [3], in assay [8], in assay [9], in assay [4] and in [6] was greater than 100 µM each time. Also, the TGI in assay [10], in assay [5] and in assay [7] was greater than 100 µM throughout.
As to `COc1ccc(O)c(C(=O)CCC(=O)O)c1`, the TGI in assay [1] was greater than 100 µM; in assay [3], greater than 100 µM; in assay [4], greater than 100 µM; in assay [6], greater than 100 µM; in assay [5] it was greater than 100 µM; in assay [7] it was 29 µM.
Turning to `CCOP(=O)(OCC)/C(C#N)=C/c1ccccn1`, the TGI in assay [1], in [2], in assay [3], in [8], in [4] and in [6] was greater than 100 µM in each case. The TGI in assay [10], in assay [5] and in assay [7] was greater than 100 µM throughout.
Turning to `CCOc1ccc(N=C(NC(=O)c2ccccc2)SC)cc1`, the TGI in assay [1], in assay [2], in assay [3], in [4], in [6] and in [5] was greater than 100 µM throughout. For the same molecule, in [7], the TGI is greater than 100 µM.
Regarding `COc1cc(C2=NN(C(C)=O)C(c3cc(OC)c(OC)c(OC)c3)C2)ccc1O` (stereo not drawn), the GI50 in assay [1] is 0.614 µM; in [2], 0.317 µM; in [3] it was 0.261 µM; in assay [8] it was 1.79 µM; in assay [9], 0.304 µM; in assay [4], 0.478 µM. The results for the GI50 in [6], in assay [5] and in [7] were 0.132 µM, 0.42 µM and greater than 93.6 µM, respectively. For the same molecule, the TGI in assay [1] was greater than 100 µM; in assay [2], greater than 21.5 µM; in [3] it was greater than 100 µM; in assay [8], greater than 100 µM; in [9] it was greater than 100 µM; in assay [4] it was greater than 100 µM. For the same molecule, the TGI in [6] is 2.19 µM; in [5], greater than 100 µM; in assay [7] it was greater than 100 µM.
